Source: patent US20060030603A1, “Novel aryl urea analogs and use thereof as antibacterial agents” (priority 2004, published 2006)
Converted amounts (≈) assume the structure as drawn. Like-named read-outs stand apart in the source and are kept apart here. One block for each compound: values may come before it.

Legend:
E. faecium ATCC 6569 = assay: MIC assay, E. faecium; assay type: cell-based
Method: (§1) In vitro structure/activity relationship (“SAR”) tests were performed according to the following procedure: MIC assays were carried out in a 150 μL volume in duplicate in 96-well clear flat-bottom plates. The bacterial suspension from an overnight culture growth in the appropriate medium was added to a solution of test compound in 0.5% DMSO in water. Final bacterial inoculum was approximate 10^3-10^4 CFU/well. The percentage growth of the bacteria in the test wells relative to that observed for a control well containing no compound was determined by measuring absorbance at 595 nm (A595) after 20-24 h at 37° C. […] The bacterial strains used for the assays include S. aureus ATCC 13709, S. pyogenes ATCC 49399, E. faecalis ATCC 29212, E. faecium ATCC 6569, E. coli ATCC 25922, K. pneumoniae ATCC 13383, P. vulgaris ATCC 8427, P. aeruginosa ATCC 25416. The results of the in vitro SAR tests are in Tables 1-3.

E. coli ATCC 25922 = assay: MIC assay, E. coli; assay type: cell-based
Method: as §1

S. pyogenes ATCC 49399 = assay: MIC assay, S. pyogenes; assay type: cell-based
Method: as §1

E. faecalis ATCC 29212 = assay: MIC assay, E. faecalis; assay type: cell-based
Method: as §1

P. vulgaris ATCC 8427 = assay: MIC assay, P. vulgaris; assay type: cell-based
Method: as §1

K. pneumoniae ATCC 13383 = assay: MIC assay, K. pneumoniae; assay type: cell-based
Method: as §1

S. aureus ATCC 13709 = assay: MIC assay, S. aureus; assay type: cell-based
Method: as §1

P. aeruginosa ATCC 25416 = assay: MIC assay, P. aeruginosa; assay type: cell-based
Method: as §1

log P = assay type: physicochemical
[1] = Enterococcus faecium, ATCC6569; read-out: MIC E. faecium ATCC 6569
[2] = Escherichia coli, ATCC25922; read-out: MIC E. coli ATCC 25922
[3] = Streptococcus pyogenes, ATCC49399; read-out: MIC S. pyogenes ATCC 49399
[4] = Enterococcus faecalis, ATCC29212; read-out: MIC E. faecalis ATCC 29212
[5] = Proteus vulgaris, ATCC8427; read-out: MIC P. vulgaris ATCC 8427
[6] = Klebsiella pneumoniae, ATCC13383; read-out: MIC K. pneumoniae ATCC 13383
[7] = Staphylococcus aureus, ATCC13709, Table 2, benzylamino group modified analogs, read-out: MIC S. aureus
[8] = Staphylococcus aureus, ATCC13709, Table 4, read-out: MIC S. aureus ATCC 13709
[9] = Pseudomonas aeruginosa, ATCC25416; read-out: MIC P. aeruginosa ATCC 25416
[10] = Table 1, thiourea/urea analogs, acetate salts
[11] = Table 2, benzylamino group modified analogs
[12] = Staphylococcus aureus, ATCC13709, read-out: MIC S. aureus

MIC (E. faecium ATCC 6569; [1]): 3 to 6 µM (≈ 1.22 to 2.44 µg/mL)
MIC (E. coli ATCC 25922; [2]): 6 to 12 µM (≈ 2.44 to 4.89 µg/mL)
MIC (S. pyogenes ATCC 49399; [3]): 3 to 6 µM (≈ 1.22 to 2.44 µg/mL)
MIC (E. faecalis ATCC 29212; [4]): 6 to 12 µM (≈ 2.44 to 4.89 µg/mL)
MIC (P. vulgaris ATCC 8427; [5]): 12 to 25 µM (≈ 4.89 to 10.2 µg/mL)
MIC (K. pneumoniae ATCC 13383; [6]): 3 to 6 µM (≈ 1.22 to 2.44 µg/mL)
MIC (S. aureus ATCC 13709; [7]): 3 to 6 µM (≈ 1.22 to 2.44 µg/mL)
MIC (S. aureus ATCC 13709; [8]): 3 to 6 µM (≈ 1.22 to 2.44 µg/mL)
MIC (P. aeruginosa ATCC 25416; [9]): > 100 µM
logP (log P): 4.94
Structure (SMILES): CC(C)(C)c1ccc(CNCCCNC(=O)Nc2ccc(C(F)(F)F)cc2)cc1 [12i, 1-[3-(4-tert-Butyl-benzylamino)-propyl]-3-(4-trifluoromethyl-phenyl)-urea]

Structure (SMILES): COc1ccccc1NC(=S)NCCCNCc1cc(Br)cc(Br)c1 [8c]
MIC (S. aureus ATCC 13709; Table 1, thiourea/urea analogs, acetate salts, read-out: MIC S. aureus): >100 µM

MIC (S. aureus ATCC 13709; [7]): 3 to 6 µM (≈ 1.66 to 3.32 µg/mL)
Structure (SMILES): O=C(NCCCNCCCOc1ccc(Br)cc1Br)Nc1ccc(C(F)(F)F)cc1 [14a, 1-{3-[3-(2,4-Dibromo-phenoxy)-propylamino]-propyl}-3-(4-trifluoromethyl-phenyl)-urea]

Structure (SMILES): O=C(NCCCNCc1cc(Br)cc(Br)c1O)Nc1ccc(C(F)(F)F)cc1 [12r]
MIC (S. aureus ATCC 13709; Table 2, benzylamino group modified analogs, read-out: MIC S. aureus): >100 µM

Structure (SMILES): FC(F)(F)c1ccc(NC(=S)NCCCNCc2cc(Br)cc(Br)c2)cc1 [8p]
MIC S. aureus (S. aureus ATCC 13709; [10]): 6 to 12 µM

Structure (SMILES): S=C(NCCCNCc1cc(Br)cc(Br)c1)Nc1ccc(Br)cc1 [8n]
MIC S. aureus (S. aureus ATCC 13709; [10]): 12 to 25 µM

Structure (SMILES): O=C(NCCCNCc1ccc(Cl)c(Cl)c1)Nc1ccc(C(F)(F)F)cc1 [12q]
MIC S. aureus (S. aureus ATCC 13709; [11]): 3 to 6 µM

Structure (SMILES): S=C(NCCCNCc1cc(Br)cc(Br)c1)Nc1ccc(I)cc1 [8o]
MIC S. aureus (S. aureus ATCC 13709; [10]): 12 to 25 µM

Structure (SMILES): O=C(NCCCNCc1cc(C(F)(F)F)cc(C(F)(F)F)c1)Nc1ccc(C(F)(F)F)cc1 [12o]
MIC S. aureus (S. aureus ATCC 13709; [11]): 50 to 100 µM

Structure (SMILES): S=C(NCCCNCc1cc(Br)cc(Br)c1)Nc1cccc(Cl)c1 [8g]
MIC S. aureus (S. aureus ATCC 13709; [10]): 6 to 12 µM

Structure (SMILES): Fc1ccccc1NC(=S)NCCCNCc1cc(Br)cc(Br)c1 [8a]
MIC S. aureus (S. aureus ATCC 13709; [10]): 25 to 50 µM

Structure (SMILES): Fc1cccc(NC(=S)NCCCNCc2cc(Br)cc(Br)c2)c1 [8f]
MIC S. aureus (S. aureus ATCC 13709; [10]): 12 to 25 µM

Structure (SMILES): O=C(NCCCNCc1cc(Br)cc(Br)c1)Nc1cccc(C(F)(F)F)c1 [9b]
MIC S. aureus (S. aureus ATCC 13709; [10]): 6 to 12 µM

Structure (SMILES): O=C(NCCCNCc1ccc(OC(F)(F)F)cc1)Nc1ccc(C(F)(F)F)cc1 [12d]
MIC S. aureus (S. aureus ATCC 13709; [11]): 3 to 6 µM

Structure (SMILES): S=C(NCCCNCc1cc(Br)cc(Br)c1)Nc1cccc(Br)c1 [8h]
MIC S. aureus (S. aureus ATCC 13709; [10]): 6 to 12 µM

Structure (SMILES): COc1cc(Br)cc(CNCCCNC(=O)Nc2ccc(C(F)(F)F)cc2)c1O [12t]
MIC S. aureus (S. aureus ATCC 13709; [11]): 12 to 25 µM

Structure (SMILES): S=C(NCCCNCc1cc(Br)cc(Br)c1)Nc1ccc(Cl)c(Cl)c1 [8k, 1-[3-(3,5-Dibromo-benzylamino)-propyl]-3-(3,4-dichloro-phenyl)-thiourea]
MIC (S. aureus ATCC 13709; [12]): 3 to 6 µM (≈ 1.58 to 3.16 µg/mL)

Structure (SMILES): N#Cc1ccc(NC(=S)NCCCNCc2cc(Br)cc(Br)c2)cc1 [8s]
MIC S. aureus (S. aureus ATCC 13709; [10]): 25 to 50 µM

Structure (SMILES): O=C(NCCCNCc1ccccc1OC(F)(F)F)Nc1ccc(C(F)(F)F)cc1 [12b]
MIC S. aureus (S. aureus ATCC 13709; [11]): 12 to 25 µM

Structure (SMILES): O=C(NCCCNCc1cc(Br)cc(Br)c1)Nc1ccc(Cl)c(Cl)c1 [9f, 1-[3-(3,5-Dibromo-benzylamino)-propyl]-3-(3,4-dichloro-phenyl)-urea]
MIC (E. faecium ATCC 6569; Enterococcus faecium, ATCC6569, read-out: MIC E. faecium ATCC 6569): > 100 µM
MIC (E. coli ATCC 25922; Escherichia coli, ATCC25922, read-out: MIC E. coli ATCC 25922): 12 to 25 µM (≈ 6.12 to 12.8 µg/mL)
MIC (S. pyogenes ATCC 49399; Streptococcus pyogenes, ATCC49399, read-out: MIC S. pyogenes ATCC 49399): 6 to 12 µM (≈ 3.06 to 6.12 µg/mL)
MIC (E. faecalis ATCC 29212; Enterococcus faecalis, ATCC29212, read-out: MIC E. faecalis ATCC 29212): 6 to 12 µM (≈ 3.06 to 6.12 µg/mL)
MIC (P. vulgaris ATCC 8427; Proteus vulgaris, ATCC8427, read-out: MIC P. vulgaris ATCC 8427): 12 to 25 µM (≈ 6.12 to 12.8 µg/mL)
MIC (K. pneumoniae ATCC 13383; Klebsiella pneumoniae, ATCC13383, read-out: MIC K. pneumoniae ATCC 13383): 6 to 12 µM (≈ 3.06 to 6.12 µg/mL)
MIC (S. aureus ATCC 13709; [12]): 3 to 6 µM (≈ 1.53 to 3.06 µg/mL)
MIC (S. aureus ATCC 13709; Staphylococcus aureus, ATCC13709, read-out: MIC S. aureus ATCC 13709): 3 to 6 µM (≈ 1.53 to 3.06 µg/mL)
MIC (P. aeruginosa ATCC 25416; Pseudomonas aeruginosa, ATCC25416, read-out: MIC P. aeruginosa ATCC 25416): > 100 µM
logP (log P): 4.89

Structure (SMILES): O=C(NCCCNCc1cc(Br)cc(Br)c1)Nc1ccc(OC(F)(F)F)cc1 [9g]
MIC S. aureus (S. aureus ATCC 13709; [10]): 6 to 12 µM

Structure (SMILES): COc1cc(CNCCCNC(=O)Nc2ccc(C(F)(F)F)cc2)cc(OC)c1 [12p]
MIC S. aureus (S. aureus ATCC 13709; [11]): 50 to 100 µM

Structure (SMILES): CN(C)c1ccc(CNCCCNC(=O)Nc2ccc(C(F)(F)F)cc2)cc1 [12j]
MIC S. aureus (S. aureus ATCC 13709; [11]): 12 to 25 µM

MIC (E. faecium ATCC 6569; [1]): > 100 µM
MIC (E. coli ATCC 25922; [2]): > 100 µM
MIC (S. pyogenes ATCC 49399; [3]): 1.5 to 3 µM (≈ 0.506 to 1.01 µg/mL)
MIC (E. faecalis ATCC 29212; [4]): 3 to 6 µM (≈ 1.01 to 2.02 µg/mL)
MIC (P. vulgaris ATCC 8427; [5]): 12 to 25 µM (≈ 4.05 to 8.43 µg/mL)
MIC (K. pneumoniae ATCC 13383; [6]): > 100 µM
MIC (S. aureus ATCC 13709; Staphylococcus aureus, ATCC13709, Table 1, thiourea/urea analogs, acetate salts, read-out: MIC S. aureus): 3 to 6 µM
MIC (S. aureus ATCC 13709; [8]): 3 to 6 µM (≈ 1.01 to 2.02 µg/mL)
MIC S. aureus (S. aureus ATCC 13709; [11]): 3 to 6 µM
MIC (P. aeruginosa ATCC 25416; [9]): > 100 µM
Structure (SMILES): CC(=O)NC[C@H]1CN(c2ccc(N3CCOCC3)c(F)c2)C(=O)O1 [Linezolide, reference compound]
